According to US20220363681A1, “OXO SIX-MEMBERED CYCLOPYRIMIDINE COMPOUND, PREPARATION METHOD AND MEDICAL USE THEREOF” (GenFleet Therapeutics (Shanghai) Inc., priority 2019, published 2022):

Key:
[1] = system: Kras G12C mutant NCI-H358 cells; test: Cell proliferation inhibition experiment, 3D cell model, CellTiter-Glo (H358); assay type: cell-based, human; conditions: NCI-H358, 2% FBS RPMI-1640, 384-well sphere plate, cultured 5 days with compound
Method: (§1) NCI-H358 was a human non-small cell lung cancer cell line with Kras G12C mutation, cultured in 10% FBS RPMI-1640 medium; A549 was a human lung adenocarcinoma cell line with Kras G12S mutation, cultured in 10% FBS F-12K medium. The cells in the logarithmic growth phase was taken, digested with trypsin EDTA, collected and counted, and H358 was adjusted to 1.8E4 cells/ml using 2% FBS RPMI-1640 medium, and A549 was adjusted to 8.9E3 cells/ml using 2% FBS F-12K medium; 800 (45 μl) H358 or 400 (45 μl) A549 cells were seeded in a 384-well sphere plate respectively, cultured overnight to establish a 3D cell model. DMSO was used to prepare 1000× compound 3.16-fold gradient concentration stock solution, and 2% FBS medium was used to dilute 100-fold to 10× compound stock solution. On the second day after cell seeding, 5 μl 10× compound stock solution was added to each cell culture well, the final concentration was 1×, and DMSO content was 0.1%. DMSO was used as the experimental control (control) and 2% FBS medium as the blank control (blank). After the compound and cells were added and cultured for 5 days, 25 μl CellTiter-Glo working solution was added to each well, mixed at 400 rpm and incubated for 30 minutes. After standing 30 minutes at room temperature, 40 μl of the mixture was transfered to a 384-well plate with a non-transparent white bottom, the luminescence chemiluminescence value was read, and the cells proliferation inhibition rate IR (%)=(RLU control-RLU compound)/(RLU control-RLU blank)×100% was calculated, Prism 6 four-parameter method was used to fit the compound's gradient dilution concentration and the corresponding cell proliferation inhibition rate, and the IC50 value was calculated.

[2] = system: A549 cells (Kras G12S mutation); test: Cell proliferation inhibition experiment, 3D cell model, CellTiter-Glo (A549); assay type: cell-based, human; conditions: A549, 2% FBS F-12K, 384-well sphere plate, cultured 5 days with compound
Method: as §1

IC50 [1] | IC50 ([1]; Homo sapiens, NCI-H358, 120 h) | IC50 ([2]; Homo sapiens, A549, 120 h) | SMILES | also measured
6 nM | – | – | C=CC(=O)N1CCN(c2nc(OC[C@@H]3CCCN3C)nc3c(OC4CC4)c(-c4c(C)ccc5[nH]ncc45)c(Cl)cc23)CC1 (single isomer, unassigned) [Compound Z7B] | IC50 [2]: > 1000 nM
9 nM | – | – | C=CC(=O)N1CCN(c2nc(OC3CCN(C)CC3)nc3c(OC4CC4)c(-c4c(C)ccc5[nH]ncc45)c(Cl)cc23)CC1 (single isomer, unassigned) [Compound Z12A] | IC50 [2]: > 1000 nM
390 nM | – | – | C=CC(=O)N1CCN(c2nc(OC3CCN(C)CC3)nc3c(OC4CC4)c(-c4c(C)ccc5[nH]ncc45)c(Cl)cc23)CC1 (single isomer, unassigned) [Compound Z12B] | IC50 [2]: > 5000 nM
4 nM | – | – | C=CC(=O)N1CCN(c2nc(OC[C@@H]3CCCN3C)nc3c(OC4CC4)c(-c4c(C)ccc5[nH]ncc45)c(Cl)cc23)[C@@H](C)C1 (single isomer, unassigned) [Compound Z28B] | IC50 [2]: > 1000 nM
12 nM | – | – | C=CC(=O)N1CCN(c2nc(O[C@@H]3CCN(C)C3)nc3c(OC4CC4)c(-c4c(C)ccc5[nH]ncc45)c(Cl)cc23)CC1 (single isomer, unassigned) [Compound Z39B] | IC50 [2]: > 30000 nM
12 nM | – | – | C=CC(=O)N1CCN(c2nc(O[C@H]3CCN(C)C3)nc3c(OC4CC4)c(-c4c(C)ccc5[nH]ncc45)c(Cl)cc23)CC1 (single isomer, unassigned) [Compound Z40A] | IC50 [2]: > 30000 nM
– | 10 nM | > 10000 nM | C=CC(=O)N1CCN(c2nc(OC[C@@H]3CCCN3C)nc3c(OC4CC4)c(-c4c(C)ccc5[nH]ncc45)c(OC)cc23)[C@@H](C)C1 (single isomer, unassigned) [Compound Z48B] | –
– | 50 nM | > 10000 nM | C=CC(=O)N1CCN(c2nc(OC[C@@H]3CCCN3C)nc3c(OC4CC4)c(-c4c(C)ccc5[nH]ncc45)c(OC)cc23)C[C@@H]1CC#N (single isomer, unassigned) [Compound Z50A] | –
– | 126 nM | > 1000 nM | C=CC(=O)N1CCN(c2nc(OC3CCN(C)CC3)nc3c(OC4CCOCC4)c(-c4c(C)ccc5[nH]ncc45)c(Cl)cc23)CC1 [Compound Z2, 1-(4-(6-chloro-7-(5-methyl-1H-indazol-4-yl)-2-((1-methylpiperidin-4-yl)oxy)-8-((tetrahydro-2H-pyran-4-yl)oxy)quinazolin-4-yl)piperazin-1-yl)prop-2-en-1-one] | –
– | – | – | C=CC(=O)N1CCN(c2nc(OC3CCN(C)CC3)nc3c(OC4CCC4)c(-c4c(C)ccc5[nH]ncc45)c(Cl)cc23)CC1 [Compound Z3, 1-(4-(6-chloro-8-cyclobutoxy-7-(5-methyl-1H-indazol-4-yl)-2-((1-methylpiperidin-4-yl)oxy)quinazolin-4-yl)piperazin-1-yl)prop-2-en-1-one] | IC50 ([1]; Homo sapiens, 120 h): 60 nM; IC50 ([2]; Homo sapiens, 120 h): > 1000 nM
– | 311 nM | > 10000 nM | C=CC(=O)N1CCN(c2nc(OC[C@@H]3CCCN3C)nc3c(OC4CC(F)(F)C4)c(-c4c(C)ccc5[nH]ncc45)c(Cl)cc23)[C@@H](C)C1 [Compound Z5] | –
16 nM | – | > 1000 nM | C=CC(=O)N1CCN(c2nc(OC[C@@H]3CCCN3C)nc3c(OC4CC4)c(-c4c(C)ccc5[nH]ncc45)c(Cl)cc23)CC1 [Compound Z7, 1-(4-(6-chloro-8-cyclopropoxy-7-(5-methyl-1H-indazol-4-yl)-2-(((S)-1-methylpyrrolidin-2-yl)methoxy)quinazolinpyridin-4-yl)piperazin-1-yl)prop-2-en-1-one] | –
– | 257 nM | > 10000 nM | C=CC(=O)N1CCN(c2nc(OC[C@@H]3CCCN3C)nc3c(OC4CCOC4)c(-c4c(C)ccc5[nH]ncc45)c(Cl)cc23)CC1 (stereo partly drawn) [Compound Z10A, 1-(4-(6-chloro-7-(5-methyl-1H-indazol-4-yl)-2-(((S)-1-methylpyrrolidin-2-yl)methoxy)-8-((tetrahydrofuran-3-yl)oxy)quinazolin-4-yl)piperazin-1-yl)prop-2-en-1-one] | –
18 nM | – | – | C=CC(=O)N1CCN(c2nc(OC3CCN(C)CC3)nc3c(OC4CC4)c(-c4c(C)ccc5[nH]ncc45)c(Cl)cc23)CC1 [Compound Z12, 1-(4-(6-chloro-8-cyclopropoxy-7-(5-methyl-1H-indazol-4-yl)-2-((1-methylpiperidin-4-yl)oxy)quinazolin-4-yl)piperazin-1-yl)prop-2-en-1-one] | IC50 [2]: > 10000 nM
– | 336 nM | > 1000 nM | C=CC(=O)N1CCN(c2nc(OC[C@@H]3CCCN3C)nc3c(OC4CC4)c(-c4c(O)cccc4F)c(Cl)cc23)CC1 [Compound Z13] | –
– | 324 nM | > 1000 nM | C=CC(=O)N1CCN(c2nc(OC[C@@H]3CCCN3C)nc3c(OC4CC4)c(-c4c(C)ccc5[nH]ncc45)c(Cl)cc23)[C@H](C)C1 [Compound Z27, 1-((3R)-4-(6-chloro-8-cyclopropoxy-7-(5-methyl-1H-indazol-4-yl)-2-(((S)-1-methylpyrrolidin-2-yl)methoxy)quinazolin-4-yl)-3-methylpiperazin-1-yl)prop-2-en-1-one] | –
– | 11 nM | > 1000 nM | C=CC(=O)N1CCN(c2nc(OC[C@@H]3CCCN3C)nc3c(OC4CC4)c(-c4c(C)ccc5[nH]ncc45)c(Cl)cc23)[C@@H](C)C1 [Compound Z28, 1-((3S)-4-(6-chloro-8-cyclopropoxy-7-(5-methyl-1H-indazol-4-yl)-2-(((S)-1-methylpyrrolidin-2-yl)methoxy)quinazolin-4-yl)-3-methylpiperazin-1-yl)prop-2-en-1-one] | –
– | 51 nM | > 10000 nM | C=CC(=O)N1CCN(c2nc(OC[C@@H]3CCCN3C)nc3c(OC4CC4)c(-c4c(C)ccc5[nH]ncc45)c(Cl)cc23)C[C@@H]1C [Compound Z29, 1-((2S)-4-(6-chloro-8-cyclopropoxy-7-(5-methyl-1H-indazol-4-yl)-2-((((S)-1-methylpyrrolidin-2-yl))methoxy)quinazolin-4-yl)-2-methylpiperazin-1-yl)prop-2-en-1-one] | –
– | 26 nM | > 5000 nM | C=CC(=O)N1CCN(c2nc(OC[C@@H]3CCCN3C)nc3c(OC4CC4)c(-c4c(C)ccc5[nH]ncc45)c(Cl)cc23)C[C@H]1C [Compound Z30, 1-((2R)-4-(6-chloro-8-cyclopropoxy-7-(5-methyl-1H-indazol-4-yl)-2-((((S)-1-methylpyrrolidin-2-yl))methoxy)quinazolin-4-yl)-2-methylpiperazin-1-yl)prop-2-en-1-one] | –
– | 34 nM | > 10000 nM | C=CC(=O)N1CCN(c2nc(OC[C@@H]3CCCN3C)nc3c(OC4CC4)c(-c4c(C)ccc5[nH]ncc45)c(Cl)cc23)CC1CC#N (some centres unmarked) [Compound Z31] | –
– | 20 nM | > 1000 nM | C=CC(=O)N1CCN(c2nc(OC3CCN(C)C3)nc3c(OC4CC4)c(-c4c(C)ccc5[nH]ncc45)c(Cl)cc23)CC1 (centres unmarked) [Compound Z32] | –

SMILES | IC50 [1] | IC50 ([1]; Homo sapiens, NCI-H358, 120 h) | IC50 ([2]; Homo sapiens, A549, 120 h) | also measured
C=CC(=O)N1CCN(c2nc(OC3CCN(C)CC3)nc3c(OC4CC(F)(F)C4)c(-c4c(C)ccc5[nH]ncc45)c(Cl)cc23)CC1 [Compound Z1, 1-(4-(6-chloro-8-(3,3-difluorocyclobutoxy)-7-(5-methyl-1H-indazol-4-yl)-2-((1-methylpiperidin-4-yl)oxy)quinazolin-4-yl)piperazin-1-yl)prop-2-en-1-one] | – | 108 nM | > 1000 nM | –
C=CC(=O)N1CCN(c2nc(OC[C@@H]3CCCN3C)nc3c(OC4CC(F)(F)C4)c(-c4c(C)ccc5[nH]ncc45)c(Cl)cc23)CC1 [Compound Z4, 1-(4-(6-chloro-8-(3,3-difluorocyclobutoxy)-7-(5-methyl-1H-indazol-4-yl)-2-(((S)-1-methylpyrrolidin-2-yl)methoxy)quinazolin-4-yl)piperazin-1-yl)prop-2-en-1-one] | – | 136 nM | > 1000 nM | –
C=CC(=O)N1CCN(c2nc(OC[C@@H]3CCCN3C)nc3c(OC4CC(F)(F)C4)c(-c4c(C)ccc5[nH]ncc45)c(Cl)cc23)C[C@@H]1CC#N [Compound Z6, 2-((2S)-1-acryloyl-4-(6-chloro-8-(3,3-difluorocyclobutoxy)-7-(5-methyl-1H-indazol-4-yl)-2-(((S)-1-methylpyrrolidin-2-yl)methoxy)quinazolin-4-yl)piperazin-2-yl) acetonitrile] | – | 139 nM | > 5000 nM | –
C=CC(=O)N1CCN(c2nc(OC[C@@H]3CCCN3C)nc3c(OC4CCC4)c(-c4c(C)ccc5[nH]ncc45)c(Cl)cc23)CC1 [Compound Z8, 1-(4-(6-chloro-8-cyclobutoxy-7-(5-methyl-1H-indazol-4-yl)-2-(((S)-1-methylpyrrolidin-2-yl)methoxy)quinazolinpyridin-4-yl)piperazin-1-yl)prop-2-en-1-one] | – | 70 nM | > 10000 nM | –
